Test results published in paper PMC9506420, “Biological Evaluation of 3-Azaspiro[Bicyclo[3.1.0]Hexane-2,5′-Pyrimidines] as Potential Antitumor Agents” (International Journal of Molecular Sciences, 2022).

Legend:
[1] = tested on: HeLa cells; experiment: Scratch test of cell motility, HeLa; assay type: cell-based, human; details: 10 μg/mL, 24 h, serum-free, nontreated 29.3 ± 2.0%
Description: To evaluate the ability of tested adducts to inhibit cell-motility-associated metastasis, a scratch test was performed on the HeLa, CT26, and Vero cell lines. The results are shown in Figure 11, Figure 12 and Figure 13. Nontreated HeLa cells filled the scratched strip at 29.3 ± 2.0%, while cells filled 10.4 ± 1.8%, 11.2 ± 1.1%, 20.2 ± 2.9%, 4.8 ± 1.9%, and 11.7 ± 1.8% of the scratched strip under treatment with adducts 4d, 4e, 4f, 4h, and 4i, respectively (Figure 11).
Cells were seeded onto Petri dishes at a density of 5 × 10^5 cells per dish and grown to confluency. Scratch wounds were made with a 200 μL pipette tip, after which detached cells were removed by washing with phosphate-buffered saline. In order to inhibit cell proliferation, culture media was replaced to serum-free DMEM. Compounds 4d, 4e, 4f, […] were added to the cultures at a dose of 10 μg/mL and incubated for 24 h. After that, the cells were stained with Hoechst 33,342 (Thermo Fisher Scientific, Waltham, MA, USA), by adding 2 μL of 1 mg/mL stock solution to 2 mL of medium and DIBAC4 (3) (Thermo Fisher Scientific, Waltham, MA, USA) at the same dose. Images were captured using confocal microscope (Axio Observer Z1, Carl Zeiss MicroImaging GmbH, Jena, Germany). The percentage of wound closure in five randomly chosen fields was calculated with NIH ImageJ software.

[2] = tested on: Vero cells; experiment: Actin cytoskeleton staining (rhodamine-phalloidin, confocal microscopy), Vero; assay type: cell-based, African green monkey; details: 5 μg/mL, 24 h
Description: (§1) Therefore, in the current study, the actin cytoskeleton structure of HeLa, CT26, and Vero cells was analyzed, after the impact of compounds 4a–i, by the presence of filopodia-like protrusions and the availability of stress fibers (Figure 14, Figure 15 and Figure 16). […] HeLa cells were more sensitive to the action of tested products, compared to CT26 and Vero cells.
(§2) Cells were seeded onto Petri dishes with cover slips at a density of 2 × 10^5 cells per dish and incubated for 24 h. After that, cells were treated with compounds 4d, 4e, 4f, 4h, and 4i (5 μg/mL) for 24 h. The medium was removed, and cells were fixed with 4% paraformaldehyde (Sigma-Aldrich, St. Louis, MO, USA), washed three times with PBS, and permeabilized with 0.3% Triton-X100 (Sigma-Aldrich, St. Louis, MO, USA). The cells were rinsed three times with PBS. Actin filaments (microfilaments) were stained at 37 °C for 15 min with rhodamine-phalloidin (Invitrogen, Carlsbad, CA, USA). The samples were rinsed three times with PBS, followed by embedding in Fluoroshield medium (Sigma-Aldrich, St. Louis, MO, USA). Cells were imaged using an Axio Observer Z1 confocal microscope (Carl Zeiss MicroImaging GmbH, Jena, Germany). In each experiment, at least 30 cells were imaged. Images were analyzed by a pathologist, blinded to the treatment mode used for each group, using ImageJ software.

[3] = tested on: HeLa cells; experiment: Actin cytoskeleton staining (rhodamine-phalloidin, confocal microscopy), HeLa; assay type: cell-based, human; details: 5 μg/mL, 24 h
Description: as §1, §2

[4] = tested on: CT26 cells; experiment: Actin cytoskeleton staining (rhodamine-phalloidin, confocal microscopy), CT26; assay type: cell-based, mouse; details: CT26, 5 μg/mL, 24 h; for percentage of cells with normal stress fibers (C): control 64%
Description: as §1, §2

Structure (SMILES) | scratched strip filled by cells [1] [%] | percentage of cells with disassembled stress fibers (D) [2] [%] | percentage of cells with filopodia-like deformations (A) [2] [%] | percentage of cells with normal stress fibers (C) [2] [%] | percentage of cells without filopodia-like deformations (B) [2] [%] | percentage of cells with normal stress fibers (C) ([3]; control 80%) [%] | percentage of cells with filopodia-like deformations (A) ([3]; control 91%) [%] | percentage of cells with normal stress fibers (C) [4] [%] | percentage of cells with filopodia-like deformations (A) ([4]; control 43%) [%]
CCC[C@@H]1NC2(C(=O)NC(=O)NC2=O)[C@]2(c3ccccc3)[C@@H](c3ccccc3)[C@]12c1ccccc1 [Compound 4d] | 10.4 ± 1.8 | 6 | 45 | 94 | 55 |  |  |  | 
CCCC[C@@H]1NC2(C(=O)NC(=O)NC2=O)[C@]2(c3ccccc3)[C@@H](c3ccccc3)[C@]12c1ccccc1 [Compound 4e] | 11.2 ± 1.1 | 11 | 44 | 89 | 56 |  |  |  | 
CC(C)C[C@@H]1NC2(C(=O)NC(=O)NC2=O)[C@]2(c3ccccc3)[C@@H](c3ccccc3)[C@]12c1ccccc1 [Compound 4f] | 20.2 ± 2.9 | 4 | 43 | 96 | 57 | 10 | 35 |  | 
CSCC[C@@H]1NC2(C(=O)NC(=O)NC2=O)[C@]2(c3ccccc3)[C@@H](c3ccccc3)[C@]12c1ccccc1 [Compound 4h] | 4.8 ± 1.9 | 8 | 46 | 92 | 54 |  |  | 36 | 
O=C1NC(=O)C2(N[C@@H](c3ccccc3)[C@@]3(c4ccccc4)[C@H](c4ccccc4)[C@@]23c2ccccc2)C(=O)N1 [Compound 4i] | 11.7 ± 1.8 | 2 | 30 | 98 | 70 |  |  | 38 | 38
